Experimental data: patent publication US6423692B2 (priority 1997, dated 2002)

Assays:
9L-Neo cells [1] = assay: cells; type: cell-based; conditions: Rattus norvegicus, 120 h, read-out: Cytotoxicity, cell viability
Protocol: Surviving cells were then counted 3 days later. Data represent means+s.e.m. […] Data represent the means +s.e.m. (bars) of five separate experiments.
In order to determine whether the dCK/ara-C-mediated bystander effect is dependent on direct cell-to-cell contact, 9L-Neo cells were plated on the bottom of a microliter transwell either directly with 9L-dCK cells or separated from the 9L-dCK cells by a 3-μm porous membrane. Significant cytotoxicity (38%+2% of control) was also seen in the 9L-Neo cells that were directly mixed in the bottom compartment with the 9L-dCK cells, compared with minimal cytotoxicity (81% of control) when the 9L-Neo cells were separated from the 9L-dCK cells by the membrane (FIG. 3b). The difference in cytotoxicity between cell-to-cell and membrane separated cell killing was statistically significant; P<0.01.

9L-Neo tumors [2] = assay: Survival of rats with intracerebral tumors; conditions: intracerebral 9L-Neo tumors, ara-C 200 mg/kg; P<0.02
Protocol: 9L-Neo or 9L-dCK cells (2×10^4) were stereotaxically injected into right caudate nucleus of the brain.
In a second experiment, intracerebral tumors were established and rat survival was measured. Secondary to restricted intracranial volume, the survival of rats in this model represents a very reproducible parameter for determining the growth of transplanted tumors or tumor cell lines in vivo.
(§4) Implantation of intracerebral tumors. 9L-Neo and 9L-dCK cells were stereotaxically implanted into the right caudate nucleus of Fischer 344 rats using a modification of the method of Kobayashi [Kobayashi, N. et al. J. Neurosurg. […] In brief, male Fischer 344 rats (150-175 g) were anesthetized and placed in a small animal stereotaxic frame (Kopf Instruments). Tumor cells (2×10^4/10 μl) were injected with a 701 Hamilton syringe over 30 s to a depth of 4.5 mm, 1.3 mm posterior and 4 mm to the right of the bregma. […] Statistical significance of survival between different groups was assessed using log rank analysis of Kaplan Meier survival curves.

9L-Neo tumors [3] = assay: Growth of intradermal tumors in syngeneic rat; type: in vivo, Fischer 344 rats
Protocol: Implantation of intradermal tumors. […] Tumor volume was calculated by multiplying the values of three perpendicular diameters. Statistical analysis was performed using an unpaired, two-tailed, Student's t-test.
Treatment of animals. […] Oncol.

intracerebral 9L glioma = type: in vivo, Fischer 344 rats
Protocol: 9L-Neo or 9L-dCK cells (2×10^4) were injected into right caudate nucleus of the brain. Four days later, viral vehicle or 2×10^8 PFU of recombinant adenoviruses were injected into the tumors stereotaxically using the same route of previous 9L inoculation (V).
Four days later, viral vehicle, or 2×10^8 PFU (plaque-forming units) of either the Ad.CMVβgal or Ad.CMVdCK vectors were stereotactically injected into the tumors.
as §4

9L-Neo cells [4] = assay: Incorporation of ara-C into DNA; type: cell-based, rat; conditions: one million cells
Protocol: (§1) Three and 6 h later, labeled cells were harvested, and digested by the addition of 2.5 mg proteinase-K (Boehringer-Mannheim, Indianapolis, Ind.) in 2 ml of 10 mM Tris (pH 7.4), 1 mM EDTA, and 0.5% SDS. Subsequent purification was accomplished by phenol extraction. The nucleic acids were precipitated, centrifuged, treated with RNase A and then assayed for radioactivity [Major, P. D., et al., Proc. Natl. Acad. Sci. USA 78:3235-3239 (1981)].

9L-WT cells = assay: Incorporation of ara-C into DNA; type: cell-based, rat; conditions: one million cells
Protocol: as §1

[5] = system: 9L cells transduced by Ad.CMVdCK; assay: Cytotoxic assay after adenoviral transduction; type: cell-based; conditions: Rattus norvegicus, 24 h
Protocol: (§2) FIGS. 6A and 6B show in vitro sensitivity to ara-C following transduction with dCK-expressing or control virus. 9L cells (2×10^3) were infected as follows: (FIG. 6A) Ad.CMVβgal at MOI 0 (●), 50 (▪), 500 ( ? ); and (FIG. 6B) Ad.CMVdCK at MOI 0 (◯), 50 (□) and 500 ( ? ). […] Cytotoxicity was determined by staining with methylene blue. […] The difference in cell killing was highly statistically significant for cells treated with Ad.CMVdCK at an MOI of 500 (P<0.00 1).
(§3) Cytotoxic assays were performed to determine whether 9L transduction by Ad.CMVdCK confers ara-C sensitivity. Forty-eight hours after transduction, 9L cells were exposed to various concentrations of ara-C for 24 hours. Forty-eight hours later, cells were assayed for cytotoxic effects.

[6] = system: 9L cells transduced by Ad.CMVβgal; assay: Cytotoxic assay after adenoviral transduction; type: cell-based; conditions: Rattus norvegicus; Ad.CMVβgal at different MOIs, 48 h after transduction, 24 hours ara-C
Protocol: as §2, §3

Nc1ccn([C@@H]2O[C@H](CO)[C@@H](O)[C@@H]2O)c(=O)n1 [ara-C, 1-β-D-arabinofuranosyl-cytosine]
viability at 0.2 µM (9L-Neo cells [1]): 38% | Prolongation of median survival compared with PBS-treated animals (9L-Neo tumors [2]): 8 days | Tumor size (9L-Neo tumors [3]; intradermal 9L-Neo tumors, ara-C 200 mg/kg s.c. every 8 h for 2 days, two courses): 9556+2272 mm^3 | Growth of 9L-Neo tumors, ara-C versus PBS (9L-Neo tumors [3]; intradermal, ara-C 200 mg/kg): no significant difference in the growth | Survival of animals treated with Ad.CMVdCK and ara-C (intracerebral 9L glioma; 2×10^8 PFU Ad.CMVdCK intratumoral, versus viral vehicle or Ad.CMVβgal and ara-C, P<0.0005): survived much longer | Survival of vehicle and Ad.CMVβgal injected animals treated with ara-C (intracerebral 9L glioma; versus PBS-treated animals, P<0.02): longer than that seen in the PBS-treated animals | Incorporation of ara-C into DNA (9L-Neo cells [4]; 3 hours, 10^−7 M [3H]ara-C): 0.502 ± 0.198 pmol | Incorporation of ara-C into DNA (9L-Neo cells [4]; 3 hours, 10^−8 M [3H]ara-C): 0.067 ± 0.007 pmol | Incorporation of ara-C into DNA (9L-Neo cells [4]; 6 hours, 10^−7 M [3H]ara-C): 1.926 ± 0.259 pmol | Incorporation of ara-C into DNA (9L-Neo cells [4]; 6 hours, 10^−8 M [3H]ara-C): 0.403 ± 0.101 pmol | Incorporation of ara-C into DNA (9L-WT cells; 3 hours, 10^−7 M [3H]ara-C): 0.359 ± 0.061 pmol | Incorporation of ara-C into DNA (9L-WT cells; 3 hours, 10^−8 M [3H]ara-C): 0.054 ± 0.001 pmol | Incorporation of ara-C into DNA (9L-WT cells; 6 hours, 10^−7 M [3H]ara-C): 1.905 ± 0.652 pmol | Incorporation of ara-C into DNA (9L-WT cells; 6 hours, 10^−8 M [3H]ara-C): 0.305 ± 0.094 pmol | IC50 ([5]; Ad.CMVdCK MOI 0, 24 hours ara-C): 0.3 µM | IC50 ([5]; Ad.CMVdCK MOI 50, 24 hours ara-C): 0.19 µM | IC50 ([5]; Ad.CMVdCK MOI 500, 24 hours ara-C, P<0.001): 0.08 µM | IC50 [6]: ~0.3 µM
